Assays:
Format in all cases: functional
Cavia porcellus [1] = species: Cavia porcellus; assay: Percent relaxation of isolated guinea pig trachea.
Cavia porcellus [2] = species: Cavia porcellus; assay: Percent relaxation using isolated guinea pig trachea.
Cavia porcellus [3] = species: Cavia porcellus; assay: pD2 value (pD2 = -log EC50) was calculated using indometazine in guinea pig trachea
Cavia porcellus [4] = species: Cavia porcellus; assay: Compound was evaluated for the percent of relaxation using isolated guinea pig trachea
Cavia porcellus [5] = species: Cavia porcellus; assay: Compound was evaluated for the percent of relaxation using isolated guinea pig trachea at a dose of 1 mM

Question: Which results are given for `O=C(O)c1ccc2c(c1)S(=O)(=O)c1ccccc1C2=O`?
Answer: pD2 (Cavia porcellus [1]): 4.65; Relaxation (Cavia porcellus [2]): 85%

Question: For `N#Cc1ccc2c(c1)S(=O)(=O)c1ccccc1C2=O`, which pD2 (Cavia porcellus [1]) is on record?
Answer: 4.53

Question: And the Relaxation (Cavia porcellus [2])?
Answer: 13%

Question: What does the source list for `Cc1nc2c(o1)CC1C=CC=CC1=CC2O` (stereo not drawn)?
Answer: pD2 (Cavia porcellus [1]): 4.8; Relaxation (Cavia porcellus [2]): 37%

Question: With `Cc1ccc(S(=O)(=O)N2CCCSCC2)cc1` as the molecule, how does the Relaxation (Cavia porcellus [2]) read?
Answer: 0%

Question: How did the pD2 (Cavia porcellus [1]) turn out when `COC(=O)C1C2CCC(O2)C1C(=O)OC` (stereo not drawn) was run?
Answer: 4.8

Question: And the Relaxation (Cavia porcellus [2])?
Answer: 28%

Question: `C[C@]12CCC(=O)C=C1CCCC2=O` was tested. Which pD2 (Cavia porcellus [1]) did it give?
Answer: 4.5

Question: What about the Relaxation (Cavia porcellus [2]) of the same molecule?
Answer: 22%

Question: Which results are given for `NC(=O)c1ccc2c(c1)S(=O)(=O)c1ccccc1C2=O`?
Answer: pD2 (Cavia porcellus [1]): 5.69; Relaxation (Cavia porcellus [2]): 18%

Question: Which pD2 (Cavia porcellus [1]) does the source give for `O=C(CN1CCNCC1)N1CCCC1` here?
Answer: 4.6

Question: And the Relaxation (Cavia porcellus [2])?
Answer: 59%

Question: With `CC(=O)CC(c1ccc([N+](=O)[O-])cc1)c1c(O)c2ccccc2oc1=O` (stereo not drawn) [ACENOCOUMAROL] as the molecule, how does the pD2 (Cavia porcellus [1]) read?
Answer: 4.55

Question: What about the Relaxation (Cavia porcellus [2]) of the same molecule?
Answer: 69%

Question: `Nc1nccs1` [AMINOTHIAZOLE] was tested. Which pD2 (Cavia porcellus [1]) did it give?
Answer: 4.4

Question: And the Relaxation (Cavia porcellus [2])?
Answer: 19%

Question: What does the source list for `Oc1ccc2c(O)c3ccccc3cc2c1O` [ANTHRAROBIN]?
Answer: pD2 (Cavia porcellus [1]): 5.69; Relaxation (Cavia porcellus [2]): 92%

Question: Which pD2 (Cavia porcellus [1]) does the source give for `Cc1c(C2(c3cc(Br)c(O)c(Br)c3C)OS(=O)(=O)c3ccccc32)cc(Br)c(O)c1Br` [BROMCRESOL GREEN] here?
Answer: 4.5

Question: What about the Relaxation (Cavia porcellus [2]) of the same molecule?
Answer: 21%

Question: What does the source list for `O=S1(=O)OC(c2cc(Br)c(O)c(Br)c2)(c2cc(Br)c(O)c(Br)c2)c2ccccc21` [BROMOPHENOL BLUE]?
Answer: pD2 (Cavia porcellus [1]): 4.5; Relaxation (Cavia porcellus [2]): 51%

Question: With `O=C(O)c1cn(C2CC2)c2cc(N3CCNCC3)c(F)cc2c1=O` [CIPROFLOXACIN] as the molecule, how does the Relaxation (Cavia porcellus [2]) read?
Answer: 0%

Question: For `O=C1c2ccccc2S(=O)(=O)c2cc(-c3nn[nH]n3)ccc21` [DOXANTRAZOLE], which pD2 (Cavia porcellus [1]) is on record?
Answer: 5.5

Question: And the Relaxation (Cavia porcellus [2])?
Answer: 91%

Question: How did the Relaxation (Cavia porcellus [2]) turn out when `OC(Cn1cncn1)(Cn1cncn1)c1ccc(F)cc1F` [FLUCONAZOLE] was run?
Answer: -51%

Question: How did the pD2 (Cavia porcellus [1]) turn out when `COC1=CC(=O)C[C@@H](C)[C@]12Oc1c(Cl)c(OC)cc(OC)c1C2=O` [GRISEOFULVIN] was run?
Answer: 4.8

Question: What about the Relaxation (Cavia porcellus [2]) of the same molecule?
Answer: 74%

Question: Which Relaxation (Cavia porcellus [2]) does the source give for `CCCCC(CC)CN1CN(CC(CC)CCCC)CC(C)(N)C1` (stereo not drawn) [HEXETIDINE] here?
Answer: -94%

Question: What does the source list for `Cc1occc(=O)c1O` [MALTOL]?
Answer: pD2 (Cavia porcellus [1]): 5.25; Relaxation (Cavia porcellus [2]): 16%

Question: Which Relaxation (Cavia porcellus [2]) does the source give for `CCN(CC)c1ccc2nc3c4ccccc4c(=O)cc-3oc2c1` [NILE RED] here?
Answer: 0%

Question: For `CCn1cc(C(=O)O)c(=O)c2cc(F)c(N3CCNCC3)cc21` [NORFLOXACIN], which Relaxation (Cavia porcellus [2]) is on record?
Answer: 0%

Question: With `CCCCC1C(=O)N(c2ccccc2)N(c2ccccc2)C1=O` [PHENYLBUTAZONE] as the molecule, how does the Relaxation (Cavia porcellus [2]) read?
Answer: 28%

Question: What about the pD2 (Cavia porcellus [3]) of the same molecule?
Answer: 4.69

Question: For `CCn1cc(C(=O)O)c(=O)c2cnc(N3CCCC3)nc21` [PIROMIDIC ACID], which pD2 (Cavia porcellus [1]) is on record?
Answer: 5.3

Question: And the Relaxation (Cavia porcellus [2])?
Answer: 25%

Question: How did the pD2 (Cavia porcellus [1]) turn out when `Cc1c(C(C)C)c(=O)n(-c2ccccc2)n1C` [PROPYPHENAZONE] was run?
Answer: 5.69

Question: What about the Relaxation (Cavia porcellus [2]) of the same molecule?
Answer: 29%

Question: Which Relaxation (Cavia porcellus [2]) does the source give for `C[n+]1cc2c3c(ccc2c2ccc4cc5c(cc4c21)OCO5)OCO3` [SANGUINARIUM] here?
Answer: -89%

Question: For `CN1C(C(=O)Nc2ccccn2)=C(O)c2sccc2S1(=O)=O` [TENOXICAM], which Relaxation (Cavia porcellus [2]) is on record?
Answer: 32%

Question: What about the pD2 (Cavia porcellus [3]) of the same molecule?
Answer: 5.2

Question: Which pD2 (Cavia porcellus [1]) does the source give for `Cn1c(=O)c2nc[nH]c2n(C)c1=O.O` [THEOPHYLLINE] here?
Answer: 4.69

Question: And the Relaxation (Cavia porcellus [4])?
Answer: 77.1%

Question: What about the Emax at 1000 µM (Cavia porcellus [5]) of the same molecule?
Answer: 100%
